Test: solubility in water at room temperature
Assay type: physicochemical

NC[C@H]1COc2cc(Cl)ccc2O1 [compound of formula (V-S), (2S)-6-chloro-2,3-dihydro-1,4-benzodioxin-2-methanamine]
solubility in water: 0.35 g/100 g water

From US8895762B2, “Process for the preparation of sulfamide derivatives” (Janssen Pharmaceutica NV, priority 2011, dated 2014)
